Experimental data taken from patent US20030004201A1, “Medicament” (SmithKline Beecham p.l.c., priority 1990, published 2003).
Where a name gives a salt, the structure may show the parent alone.

| melting point [°C] | Compound |
| --- | --- |
| 178 to 181 | CCCSc1ncc(C[C@H](NC(=O)CCC)C(=O)O)n1Cc1ccccc1Cl [Example 1, 3-[(2-Chlorophenyl)methyl]-2-propylthio-N-butyrylhistidine] |
| 118 to 120 | CCCCc1ncc(CC(Cc2ccccc2)C(=O)O)n1Cc1ccccc1Cl (stereo not drawn) (as salt: hydrochloride) [Example 2, 3-[2-n-Butyl-1-{(2-chlorophenyl)methyl}-1H-imidazol-5-yl]-2-benzylpropanoic Acid] |
| 254 to 255 | CCCCc1nc2cc(Br)cc(C(=O)O)c2n1Cc1ccccc1Cl [Example 4, 5-Bromo-2-n-butyl-1-(2-chlorophenyl)methyl-1H-benzimidazole-7-carboxylic Acid] |
